Experimental findings from patent US20250161286A1 (AEVIS BIO, INC., priority 2022, published 2025) are described below.

The series is described as follows: Cytotoxicity evaluation, CCK analysis kit. In kind it is cell-based. The conditions noted are these: human, MM.1S (CRL-2974) multiple myeloma cells; MM.1S cells, treated for 3 days. How it is done:
The MM.1S (CRL-2974) cell line, which is a human multiple myeloma cell line, was purchased from the American Type Culture Collection (ATCC, Manassas, VA, USA) and used, and incubated using RPMI1640 medium (Corning, MD, USA) supplemented with 10% fatal bovine serum (Corning, MD, USA), 100 U/ml of penicillin (Corning, MD, USA), and 100 μg/ml of streptomycin (Corning, MD, USA) at 37° C. in a 5% CO2 incubator for 24 hours.

The compound `Nc1cccc2c1C(=O)N(C1CCC(=O)NC1=O)C2=O` (racemic) [pomalidomide, (R,S)-4-amino-2-(2,6-dioxopiperidin-3-yl)isoindole-1,3-dione, reference compound] registered an IC50 at 3 days of 69 nM.
